Assay: in vitro
Conditions: human, hek293t cells

Structure (SMILES) | viability at 48 h, 25 µM [%]
N#CC(=Cc1ccc(Cl)cc1)C(=O)Nc1ccc2c(c1)OCCO2 [9-E22, 3-(4-chlorophenyl)-2-cyano-N-(2,3-dihydro-1,4-benzodioxin-6-yl)prop-2-enamide] | 106
N#CC(=Cc1ccc(O)cc1)C(=O)Nc1cc(Cl)ccc1Cl [9-F03, 2-cyano-N-(2,5-dichlorophenyl)-3-(4-hydroxyphenyl)prop-2-enamide] | 87
COCC(C)NC(=O)C(C#N)=Cc1cc2cc(F)ccc2o1 (stereo not shown) [9-F04, 2-cyano-3-(5-fluoro-1-benzofuran-2-yl)-N-(1-methoxypropan-2-yl)prop-2-enamide] | 99.8
C=CCNC(=O)C(C#N)=Cc1ccc(C)s1 [9-F05, 2-cyano-3-(5-methylthiophen-2-yl)-N-(prop-2-en-1-yl)prop-2-enamide] | 108
N#CC(=Cc1cccc(Oc2ccccc2)c1)C(=O)N1CCCC1 [9-F06, 3-(3-phenoxyphenyl)-2-(pyrrolidine-1-carbonyl)prop-2-enenitrile] | 46.3
CCn1nc(C)c(C=C(C#N)C(=O)Nc2ccccc2Cl)c1C [9-F07, N-(2-chlorophenyl)-2-cyano-3-(1-ethyl-3,5-dimethyl-1H-pyrazol-4-yl)prop-2-enamide] | 110
N#CC(=CC1=Cc2ccccc2OC1)C(=O)NCc1ccccc1 [9-F08, N-benzyl-3-(2H-chromen-3-yl)-2-cyanoprop-2-enamide] | 114
COCC(C)NC(=O)C(C#N)=Cc1cccc(F)c1F (stereo not shown) [9-F09, 2-cyano-3-(2,3-difluorophenyl)-N-(1-methoxypropan-2-yl)prop-2-enamide] | 114
COc1ccc(C=C(C#N)C(=O)Nc2ccc(C(=O)O)cc2)cc1O [9-F10, 4-[2-cyano-3-(3-hydroxy-4-methoxyphenyl)prop-2-enamido]benzoic acid] | 120
Cc1nn(C)c(C)c1C=C(C#N)C(=O)Nc1ccccc1Cl [9-F11, N-(2-chlorophenyl)-2-cyano-3-(1,3,5-trimethyl-1H-pyrazol-4-yl)prop-2-enamide] | 110
CC(=Cc1ccccc1)C=C(C#N)C(=O)NC1CC1 [9-F12, 2-cyano-N-cyclopropyl-4-methyl-5-phenylpenta-2,4-dienamide] | 92.3
N#CC(=Cc1ccccc1Cl)C(=O)NCc1ccccc1 [9-F13, N-benzyl-3-(2-chlorophenyl)-2-cyanoprop-2-enamide] | 80.5
CC(=O)Nc1ccsc1C=C(C#N)C(=O)Nc1ccc(F)cc1 [9-F14, 2-cyano-3-(3-acetamidothiophen-2-yl)-N-(4-fluorophenyl)prop-2-enamide] | 98.4
N#CC(=Cc1sc2ccccc2c1Cl)C(=O)Nc1nccs1 [9-F15, 3-(3-chloro-1-benzothiophen-2-yl)-2-cyano-N-(1,3-thiazol-2-yl)prop-2-enamide] | 117
N#CC(=Cc1ccco1)C(=O)NCc1ccc(-c2cccnc2)cc1 [9-F16, 2-cyano-3-(furan-2-yl)-N-{[4-(pyridin-3-yl)phenyl]methyl}prop-2-enamide] | 100
N#CC(=Cc1ccc(N2CCOCC2)cc1)C(=O)Nc1nccs1 [9-F17, 2-cyano-3-[4-(morpholin-4-yl)phenyl]-N-(1,3-thiazol-2-yl)prop-2-enamide] | 95.6
CNC(=O)Cn1ccc2ccc(NC(=O)C(C#N)=Cc3ccco3)cc21 [9-F18, 2-cyano-3-(furan-2-yl)-N-{1-[(methylcarbamoyl)methyl]-1H-indol-6-yl}prop-2-enamide] | 109
COc1ccc(NC(=O)C(C#N)=Cc2ccco2)cc1 [9-F19, 2-cyano-3-(furan-2-yl)-N-(4-methoxyphenyl)prop-2-enamide] | 94.6
N#CC(=Cc1ccc(Oc2cnccn2)cc1)C(=O)NC1CCCC1 [9-F20, 2-cyano-N-cyclopentyl-3-[4-(pyrazin-2-yloxy)phenyl]prop-2-enamide] | 95.3
N#CC(=Cc1cccc(O)c1)C(=O)NCc1ccco1 [9-F21, 2-cyano-N-[(furan-2-yl)methyl]-3-(3-hydroxyphenyl)prop-2-enamide] | 119
COc1cc(C=C(C#N)C(=O)Nc2cccc3ncccc23)ccc1O [9-F22, 2-cyano-3-(4-hydroxy-3-methoxyphenyl)-N-(quinolin-5-yl)prop-2-enamide] | 112
CCCNC(=O)C(C#N)=Cc1ccns1 [9-G03, 2-cyano-N-propyl-3-(1,2-thiazol-5-yl)prop-2-enamide] | 128
N#CC(=Cc1ccccc1O)C(=O)Nc1cccc2ncccc12 [9-G04, 2-cyano-3-(2-hydroxyphenyl)-N-(quinolin-5-yl)prop-2-enamide] | 123
N#CC(=Cc1cccc2c1OCCCO2)C(=O)NCc1ccccc1 [9-G05, N-benzyl-2-cyano-3-(3,4-dihydro-2H-1,5-benzodioxepin-6-yl)prop-2-enamide] | 114
CCOc1cc(C=C(C#N)C(=O)Nc2cccc(C)c2)ccc1O [9-G06, 2-cyano-3-(3-ethoxy-4-hydroxyphenyl)-N-(3-methylphenyl)prop-2-enamide] | 105

Structure (SMILES) | viability at 48 h, 25 µM [%]
CCCn1c(C)cc(C=C(C#N)C(=O)Nc2ccc3c(c2)OCO3)c1C [9-G07, N-(1,3-dioxaindan-5-yl)-2-cyano-3-(2,5-dimethyl-1-propyl-1H-pyrrol-3-yl)prop-2-enamide] | 100
COc1cccc(C=C(C#N)C(=O)Nc2ccccc2C(=O)O)c1 [9-G08, 2-[2-cyano-3-(3-methoxyphenyl)prop-2-enamido]benzoic acid] | 102
COc1ccc(NC(=O)C(C#N)=Cc2c(Cl)nc3ccccn23)cc1 [9-G09, 3-{2-chloroimidazo[1,2-a]pyridin-3-yl}-2-cyano-N-(4-methoxyphenyl)prop-2-enamide] | 121
N#CC(=Cc1ccc(O)c([N+](=O)[O-])c1)C(=O)Nc1ccccc1C(=O)O [9-G10, 2-[2-cyano-3-(4-hydroxy-3-nitrophenyl)prop-2-enamido]benzoic acid] | 118
CCCCNC(=O)C(C#N)=Cc1ccc2c(c1)OCCO2 [9-G11, N-butyl-2-cyano-3-(2,3-dihydro-1,4-benzodioxin-6-yl)prop-2-enamide] | 106
COc1cc(C=C(C#N)C(=O)NC2CC2)ccc1O [9-G12, 2-cyano-N-cyclopropyl-3-(4-hydroxy-3-methoxyphenyl)prop-2-enamide] | 110
N#CC(=Cc1ccc(Cl)cc1)C(=O)NCc1ccccc1 [9-G13, N-benzyl-3-(4-chlorophenyl)-2-cyanoprop-2-enamide] | 104
COc1ccc(C=C(C#N)C(=O)Nc2ccc(C(=O)O)cc2)cc1C [9-G14, 4-[2-cyano-3-(4-methoxy-3-methylphenyl)prop-2-enamido]benzoic acid] | 108
N#CC(=Cc1ccc(OC(F)F)cc1)C(=O)Nc1ccccc1 [9-G15, 2-cyano-3-[4-(difluoromethoxy)phenyl]-N-phenylprop-2-enamide] | 139
CC1CC1c1ccc(C=C(C#N)C(=O)Nc2ccc(C(=O)O)cc2)o1 (stereo not shown) [9-G16, 4-{2-cyano-3-[5-(2-methylcyclopropyl)furan-2-yl]prop-2-enamido}benzoic acid] | 133
Cc1cccc(C)c1NC(=O)C(C#N)=Cc1ccc(C(=O)O)cc1 [9-G17, 4-{2-cyano-2-[(2,6-dimethylphenyl)carbamoyl]eth-1-en-1-yl}benzoic acid] | 111
N#CC(=Cc1ccc(-c2cccc([N+](=O)[O-])c2)s1)C(=O)NC1CC1 [9-G18, 2-cyano-N-cyclopropyl-3-[5-(3-nitrophenyl)thiophen-2-yl]prop-2-enamide] | 103
Cc1ccc(NC(=O)C(C#N)=Cc2ccc(OC(F)F)cc2)c(C)c1 [9-G19, 2-cyano-3-[4-(difluoromethoxy)phenyl]-N-(2,4-dimethylphenyl)prop-2-enamide] | 90.4
COc1cc(C=C(C#N)C(=O)Nc2cccc(Cl)c2)cc(O)c1O [9-G20, N-(3-chlorophenyl)-2-cyano-3-(3,4-dihydroxy-5-methoxyphenyl)prop-2-enamide] | 72.4
Cn1c(CNC=C(C#N)C(=O)Nc2ccccc2)cc(=O)n(C)c1=O [9-G21, 2-cyano-3-{[(1,3-dimethyl-2,6-dioxo-1,2,3,6-tetrahydropyrimidin-4-yl)methyl]amino}-N-phenylprop-2-enamide] | 115
N#CC(=Cc1ccc(O)cc1)C(=O)Nc1ccc(Cl)cc1Cl [9-G22, 2-cyano-N-(2,4-dichlorophenyl)-3-(4-hydroxyphenyl)prop-2-enamide] | 82.3
Cc1ccc(NC(=O)C(C#N)=Cc2ccc3c(c2)OCCO3)c(C)c1 [9-H03, 2-cyano-3-(2,3-dihydro-1,4-benzodioxin-6-yl)-N-(2,4-dimethylphenyl)prop-2-enamide] | 107
CC(NC(=O)C(C#N)=Cc1ccco1)c1cccc(-n2ccnc2)c1 (stereo not shown) [9-H04, 2-cyano-3-(furan-2-yl)-N-{1-[3-(1H-imidazol-1-yl)phenyl]ethyl}prop-2-enamide] | 127
C=CCNC(=O)C(C#N)=Cc1ccccc1OC [9-H05, 2-cyano-3-(2-methoxyphenyl)-N-(prop-2-en-1-yl)prop-2-enamide] | 114
Cc1ncsc1C=C(C#N)C(=O)NCCc1ccccc1 [9-H06, 2-cyano-3-(4-methyl-1,3-thiazol-5-yl)-N-(2-phenylethyl)prop-2-enamide] | 99.1
C=CCNC(=O)C(C#N)=Cc1cc(F)ccc1F [9-H07, 2-cyano-3-(2,5-difluorophenyl)-N-(prop-2-en-1-yl)prop-2-enamide] | 111
COCCNC(=O)C(C#N)=Cc1cccc(O)c1 [9-H08, 2-cyano-3-(3-hydroxyphenyl)-N-(2-methoxyethyl)prop-2-enamide] | 121
COCC(C)NC(=O)C(C#N)=Cc1ccc(F)c(C)c1 (stereo not shown) [9-H09, 2-cyano-3-(4-fluoro-3-methylphenyl)-N-(1-methoxypropan-2-yl)prop-2-enamide] | 108
N#CC(=Cc1ccc(-c2ccccc2F)o1)C(=O)NCc1ccccc1 [9-H10, N-benzyl-2-cyano-3-[5-(2-fluorophenyl)furan-2-yl]prop-2-enamide] | 92.7

Source: paper PMC11995724, “Antibiotic target discovery by integrated phenotypic and activity-based profiling of electrophilic fragments” (Cell chemical biology, 2025)
